In patent US10278957B2, “Opioid agonist peptides and uses thereof” (Protagonist Therapeutics, Inc., priority 2017, dated 2019):
Square brackets hold non-standard residues; d marks the D form. Peptide text beside a SMILES is read from it. Dmt = Cc1cc(O)cc(C)c1C[C@H](N)C(=O)O; β3hF = N[C@H](CC(=O)O)Cc1ccccc1; Sar = CNCC(=O)O

Experiments:
[1] = SIF assay (stability in simulated intestinal fluid); assay type: in vitro ADME; conditions: for half-life at 20 μM: simulated intestinal fluid (SIF) with pancreatin, simulated intestinal fluid, pH 6.8, pancreatin, 37° C.
Protocol: SIF was prepared by adding 6.8 g of monobasic potassium phosphate and 10.0 g of pancreatin to 1.0 L of water. After dissolution, the pH was adjusted to 6.8 using NaOH. DMSO stocks (2 mM) were prepared for each of the opioid agonist peptides. Aliquots of the DMSO solutions were dosed into […], each containing 0.5 mL of SIF, which was pre-warmed to 37° C. The final opioid agonist peptide concentration was 20 μM. The vials were kept in a benchtop Thermomixer® for the duration of the experiment. At each timepoint (0, 5, 10, 20, 40, 60, or 360 minutes or 24 hours), 1.0 mL of acetonitrile containing 1% formic acid was added to one vial to terminate the reaction. Samples were stored at 4° C. until the end of the experiment. After the final timepoint was sampled, the tubes were mixed and then centrifuged at 3,000 rpm for 10 minutes. Aliquots of the supernatant were removed, diluted 1:1 into distilled water containing an internal standard, and analyzed by LCMS/MS. The percent of the opioid agonist peptide remaining at each timepoint was calculated based on the peak area response ratio of opioid agonist peptide to the internal standard. Time 0 was set to 100%, and all later timepoints were calculated relative to time 0. Half-lives were calculated by fitting to a first-order exponential decay equation using Graph pad.

μ-opioid receptor (MOR) = molecular target: T1, μ-opioid receptor (MOR) (Homo sapiens, UniProt P35372); test: MOR agonist cAMP assay (HitHunter cAMP, forskolin-stimulated); assay type: cell-based
T1 construct: host or cells: cAMP Hunter CHO-K1 OPRM1 Gαi cell line
T1 sequence (P35372 whole entry): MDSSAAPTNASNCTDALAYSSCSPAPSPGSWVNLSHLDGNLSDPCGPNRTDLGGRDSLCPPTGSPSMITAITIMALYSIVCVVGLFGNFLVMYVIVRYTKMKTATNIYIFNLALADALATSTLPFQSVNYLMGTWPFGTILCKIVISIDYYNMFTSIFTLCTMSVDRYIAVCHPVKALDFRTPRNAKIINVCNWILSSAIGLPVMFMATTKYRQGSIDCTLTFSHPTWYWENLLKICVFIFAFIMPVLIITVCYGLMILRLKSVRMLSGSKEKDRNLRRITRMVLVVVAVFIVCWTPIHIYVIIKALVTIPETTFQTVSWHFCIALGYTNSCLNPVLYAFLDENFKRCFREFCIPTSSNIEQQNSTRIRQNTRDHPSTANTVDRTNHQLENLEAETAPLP
Protocol: The HitHunter® cAMP chemiluminescent assay kit (DiscoveRx, Cat# 90-0075 SM25) was used to detect cAMP production in cAMP Hunter™ Gαi cell lines over expressing either Human-ORPM1 (Discoverx, Catalog# 95-0107C2) or Human-ORPD1 (DiscoveRx, Catalog# 95-0108C2). Opioid agonist binding to the Gαi receptors inhibits the intracellular cAMP accumulation induced by forskolin, which activates adenylate cyclase and increases intracellular levels of cAMP.
Cells were cultured in media consisting of Ham's F-12 Nutrient Mix (Life Technologies, Catalog#31765035), 10% FBS (Life Technologies, Catalog# 16140-071), 4 mM GlutaMAX (Life Technologies, Catalog#35050-061), […] (Life Technologies), 100 ug/ml of Penn-Strep (Life Technologies) and 0.5 mg/ml Geneticin (Life Technologies, Catalog# 10131-027). The cultures were maintained at 37° C. under 5% CO2.
In preparation for cAMP assay, the cells were seeded at a density of 300,000 cells/ml in 100 ul of media/well in 96-well microplate. Wells that were designated for cAMP standards were left empty.
Opioid agonist serial dilutions were prepared in separate dilution plate (11-point series of 3× (3-fold) dilution) in Cell Assay buffer, including 3× forskolin for Gαi target. For Hunter CHO-K1 OPRM1 or CHO-K1 OPRD1 Gαi Cell Lines, the final forskolin concentration was 20 uM.
15 ul of each 3× opioid agonist serial dilution was added in the presence of forskolin in duplicate to the designated wells. The final concentration of each dilution was at 3× of the final screening concentration. The assay plate was incubated for 30 min, at 37° C. under 5% CO2.
Cellular cAMP concentrations were measured using the HitHunter cAMP Assay kit following the manufacturer's protocol. HitHunter cAMP assay is a gain-of-signal competitive immunoassay based on Enzyme Fragment Complementation (EFC) technology. The kit uses β-galactosidase (β-gal) enzyme split into Enzyme Donor (ED) and Enzyme Acceptor (EA). The cellular cAMP and ED-labelled cAMP compete for anti-cAMP antibody. […] When cellular cAMP level is high, it competes for the anti-cAMP antibody, thereby releasing ED-cAMP to complement with EA to produce a luminescent signal. The amount of signal is directly proportional to the amount of cAMP in cells and can be quantified using cAMP standards. The assay plates were read using a PerkinElmer Envision instrument to detect the chemiluminescence signal in each well (luminescence reader at 0.1 to 1 second/well). Data analysis was performed using Graphpad Prism 7.EC50 was calculated by nonlinear regression, using the four-parameter hill equation.

δ-opioid receptor (DOR) = molecular target: T2, δ-opioid receptor (DOR) (Homo sapiens, UniProt P41143); test: DOR agonist cAMP assay (HitHunter cAMP, forskolin-stimulated); assay type: cell-based
T2 construct: host or cells: cAMP Hunter CHO-K1 OPRD1 Gαi cell line
T2 sequence (P41143 whole entry): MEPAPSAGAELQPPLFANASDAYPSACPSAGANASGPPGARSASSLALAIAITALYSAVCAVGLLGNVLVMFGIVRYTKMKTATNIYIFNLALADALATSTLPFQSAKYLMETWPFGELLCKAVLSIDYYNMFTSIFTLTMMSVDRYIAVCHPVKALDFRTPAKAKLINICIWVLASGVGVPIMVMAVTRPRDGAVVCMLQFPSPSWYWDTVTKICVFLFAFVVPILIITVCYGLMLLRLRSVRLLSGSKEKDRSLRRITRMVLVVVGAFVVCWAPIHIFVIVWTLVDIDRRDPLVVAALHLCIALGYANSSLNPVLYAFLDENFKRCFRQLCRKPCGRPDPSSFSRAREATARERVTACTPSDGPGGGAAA
How it was run: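 CHO-K1 Gαi cells expressing OPRM1 or OPRD1 were exposed 30 min at 37° C to 11-point threefold agonist dilutions, in duplicate, with 20 uM forskolin final. cAMP quantified by EFC chemiluminescent competitive immunoassay against cAMP standards. EC50 by four-parameter Hill nonlinear regression.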

[2] = SGF assay (stability in simulated gastric fluid); assay type: in vitro ADME; conditions: pig, simulated gastric fluid (SGF) with porcine pepsin, pH 2, pepsin, 37° C.
Protocol: SGF was prepared by adding 20 mg NaCl, 32 mg porcine pepsin (MP Biochemicals, catalog 02102599), and 70 μl HCl to 10 ml water (final pH=2). Aliquots of SGF (0.5 ml each) were pre-warmed at 37° C. To start the reaction, 1 μl of opioid agonist peptide stock solution (10 mM in DMSO) was added to 0.5 ml SGF and thoroughly mixed such that the final peptide concentration was 20 μM. The reactions were incubated at 37° C. with gentle shaking.
At each timepoint (0, 15, 30, 60 min) 50 µl aliquots were removed and added to 200 ul of acetonitrile containing 0.1% formic acid to quench the reaction. Samples were stored at 4° C. until the end of the experiment and centrifuged at 10,000 rpm for 5 minutes. Aliquots of the supernatant were removed, diluted 1:1 into distilled water containing internal standard, and analyzed by LCMS/MS. The percent of the opioid agonist peptide remaining at each timepoint was calculated based on the peak area response ratio of the opioid agonist peptide to the internal standard. Time 0 was set to 100%, and all later timepoints were calculated relative to time 0. Half-lives were calculated by fitting to a first-order exponential decay equation using GraphPad.

Row | Compound | SIF (min) ([1]; Table 4, SIF half-life) | half-life at 20 μM [1] [h] | EC50 (μ-opioid receptor (MOR)) [nM] | EC50 (δ-opioid receptor (DOR)) [nM] | half-life at 20 μM [2] [h]
1 | Cc1cc(C(N)=O)cc(C)c1C[C@H](N)C(=O)N[C@H](C)C(=O)NCC(=O)N[C@H](CC(=O)N(C)CC(N)=O)Cc1ccccc1 [Seq. ID 70, H-Phe(2,6-dimethyl-4-CONH2)-a-G-bhF-Sar-NH2] | **** (for SIF half-life values, **** indicates >1290) | – | – | – | –
2 | C[C@@H](NC(=O)[C@@H](N)Cc1ccc(O)c(O)c1)C(=O)NCC(=O)N[C@H](CC(=O)N(C)CC(N)=O)Cc1ccccc1 [compound 58] | – | 6 to 24 | – | – | –
3 | CCCC[C@@H](C(=O)O)N(C)C(=O)C[C@H](Cc1ccccc1)NC(=O)CNC(=O)[C@@H](C)NC(=O)[C@@H](N)Cc1c(C)cc(C(N)=O)cc1C [compound 101] | – | > 24 | 1 to 10 | < 1 | > 24
4 | Cc1cc(O)cc(C)c1C[C@H](N)C(=O)N[C@H](C)C(=O)NCC(=O)N[C@H](CC(=O)N(C)CC(=O)O)Cc1ccccc1 [compound 87] | – | > 24 | – | < 1 | 6 to 24
5 | Cc1cc(O)cc(C)c1C[C@H](N)C(=O)N[C@H](C)C(=O)NCC(=O)N[C@H](CC(=O)N(C)[C@H](C(=O)O)c1ccccc1)Cc1ccccc1 [compound 157] | – | > 24 | < 1 | < 1 | –
6 | C[C@@H](NC(=O)[C@@H](N)Cc1ccc(O)c(F)c1)C(=O)NCC(=O)N[C@H](CC(=O)N(C)CC(N)=O)Cc1ccccc1 [compound 57] | – | 6 to 24 | – | 1 to 10 | > 24
7 | Cc1cc(O)cc(C)c1C[C@H](N)C(=O)N[C@H](C)C(=O)NCC(=O)N[C@H](CC(=O)N(CCC(C)C)CC(N)=O)Cc1ccccc1 [compound 116] | – | > 24 | – | < 1 | > 24
8 | Cc1cc(O)cc(C)c1C[C@H](N)C(=O)N[C@H](C)C(=O)NCC(=O)N[C@H](CC(=O)N(C)[C@@H](CC(C)C)C(=O)O)Cc1ccccc1 [compound 155] | – | > 24 | < 1 | – | > 24
9 | CN[C@@H](Cc1ccc(O)cc1)C(=O)N[C@H](C)C(=O)NCC(=O)N[C@H](CC(=O)N(C)CC(N)=O)Cc1ccccc1 [compound 51] | – | 6 to 24 | – | > 200 | –
10 | CCCC[C@@H](C(=O)O)N(C)C(=O)C[C@H](Cc1ccccc1)NC(=O)CNC(=O)[C@@H](C)NC(=O)[C@@H](N)Cc1c(C)cc(O)cc1C [compound 159] | – | > 24 | < 1 | – | > 24
11 | C[C@@H](NC(=O)[C@H](N)Cc1ccc(O)cc1)C(=O)NCC(=O)N[C@H](CC(=O)N(C)CC(N)=O)Cc1ccccc1 [compound 53] | – | 6 to 24 | – | > 200 | –
12 | Cc1cc(O)cc(C)c1C[C@H](N)C(=O)N[C@H](C)C(=O)N[C@@H](C)C(=O)N[C@H](CC(=O)N(C)CC(N)=O)Cc1ccccc1 [compound 66] (H-[Dmt][dA]A[β3hF][Sar]-NH2) | – | > 24 | – | – | 0.167 to 6
13 | Cc1cc(O)cc(C)c1C[C@H](N)C(=O)N[C@H](C)C(=O)NCC(=O)N[C@H](CC(=O)NCC(N)=O)Cc1ccccc1 [compound 112] | – | > 24 | – | < 1 | > 24
14 | C[C@@H](NC(=O)C[C@@H](N)Cc1ccc(O)cc1)C(=O)NCC(=O)N[C@H](CC(=O)N(C)CC(N)=O)Cc1ccccc1 [compound 50] | – | 6 to 24 | – | > 200 | –
15 | C[C@@H](NC(=O)[C@@H](N)Cc1cccc(O)c1)C(=O)NCC(=O)N[C@H](CC(=O)N(C)CC(N)=O)Cc1ccccc1 [compound 56] | – | 6 to 24 | – | > 200 | –
16 | C[C@@H](NC(=O)[C@@H](N)Cc1ccc(O)c(Cl)c1)C(=O)NCC(=O)N[C@H](CC(=O)N(C)CC(N)=O)Cc1ccccc1 [compound 55] | – | 6 to 24 | – | 10 to 50 | –
17 | C[C@@H](NC(=O)[C@@H](N)CCc1ccc(O)cc1)C(=O)NCC(=O)N[C@H](CC(=O)N(C)CC(N)=O)Cc1ccccc1 [compound 54] | – | 6 to 24 | – | > 200 | –
18 | Cc1cc(O)cc(C)c1C[C@H](N)C(=O)N[C@H](C)C(=O)NCCC(=O)N[C@H](CC(=O)N(C)CC(N)=O)Cc1ccccc1 [compound 73] | – | > 24 | – | 50 to 200 | 0.167 to 6
19 | Cc1cc(O)cc(C)c1C[C@H](N)C(=O)N[C@H](CC(=O)O)C(=O)NCC(=O)N[C@H](CC(=O)N(C)[C@@H](Cc1ccccc1)C(=O)O)Cc1ccccc1 [compound 177] | – | – | < 1 | < 1 | –
20 | Cc1cc(C(N)=O)cc(C)c1C[C@H](N)C(=O)N[C@@H](C)C(=O)NCC(=O)N[C@H](CC(=O)N(C)CC(=O)O)Cc1ccccc1 [compound 80] | – | – | 1 to 10 | 50 to 200 | –
21 | CCCC[C@@H](C(=O)O)N(C)C(=O)C[C@H](Cc1ccc(F)cc1)NC(=O)CNC(=O)[C@@H](C)NC(=O)[C@@H](N)Cc1c(C)cc(O)cc1C [compound 145] | – | – | < 1 | < 1 | –
22 | Cc1cc(O)cc(C)c1C[C@H](N)C(=O)N[C@H](CC(=O)O)C(=O)NCC(=O)N[C@H](CC(=O)N(C)[C@@H](Cc1c[nH]c2ccccc12)C(=O)O)Cc1ccccc1 [compound 171] | – | – | < 1 | < 1 | –
23 | CCCCCCCCCCCCCCCCN(CC(N)=O)C(=O)C[C@H](Cc1ccccc1)NC(=O)CNC(=O)[C@@H](C)NC(=O)[C@@H](N)Cc1c(C)cc(O)cc1C [compound 125] | – | – | 1 to 10 | 1 to 10 | –
24 | Cc1cc(O)cc(C)c1C[C@H](N)C(=O)N[C@H](C)C(=O)NCC(=O)N[C@H](CC(=O)N(CCCOC(C)C)CC(N)=O)Cc1ccccc1 [compound 117] | – | > 24 | – | < 1 | > 24
25 | C[C@@H](NC(=O)[C@@H](N)Cc1ccc(O)c(C(C)(C)C)c1)C(=O)NCC(=O)N[C@H](CC(=O)N(C)CC(N)=O)Cc1ccccc1 [compound 52] | – | 6 to 24 | – | > 200 | –
26 | CCCC[C@@H](C(=O)O)N(C)C(=O)C[C@H](Cc1ccc(I)cc1)NC(=O)CNC(=O)[C@@H](C)NC(=O)[C@@H](N)Cc1c(C)cc(C(N)=O)cc1C [compound 136] | – | – | < 1 | < 1 | –
